Laboratory results taken from paper PMC4586513, “Mitochondrial ADP/ATP exchange inhibition: a novel off-target mechanism underlying ibipinabant-induced myotoxicity” (Scientific Reports, 2015).

Molecular target: T1, adenine nucleotide translocase 1 (ANT1) (Bos taurus, UniProt P02722)
T1 construct: gene SLC25A4; native ANT in isolated bovine heart mitochondria
T1 sequence (P02722 2-298): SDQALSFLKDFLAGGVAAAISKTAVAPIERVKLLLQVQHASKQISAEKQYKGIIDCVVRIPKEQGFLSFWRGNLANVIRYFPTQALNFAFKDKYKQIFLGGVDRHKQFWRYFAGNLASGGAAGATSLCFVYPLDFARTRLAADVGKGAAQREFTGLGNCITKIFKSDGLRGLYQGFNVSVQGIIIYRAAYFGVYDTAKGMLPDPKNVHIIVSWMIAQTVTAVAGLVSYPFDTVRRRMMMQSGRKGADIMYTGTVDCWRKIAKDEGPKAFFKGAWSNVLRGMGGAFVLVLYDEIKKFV
Experiment: […]ADP uptake in isolated bovine heart mitochondria with […] atractyloside; import decreased to […]
Format: cell-based

SMILES: C=C1[C@@H]2CC[C@H]3[C@]4(C)C[C@H](O[C@@H]5O[C@H](CO)[C@@H](OS(=O)(=O)O)[C@H](OS(=O)(=O)O)[C@H]5OC(=O)CC(C)C)C[C@@H](C(=O)O)[C@H]4CC[C@]3(C2)[C@H]1O [atractyloside]
- remaining activity at 50 µM: 13.8 ± 1.1%
